These are literature values, as cited in patent US6214377A (Jenapharm GmbH, priority 1994, dated 2001).

For data set [1] the following is noted: peroral administration.
For data set [2] the following is noted: human body.

`COc1ccc2[nH]cc(CCNC(C)=O)c2c1` [melatonin, N-acetyl-5-methoxy-triptamine]: the “side effects of unphysiological overdose” value in data set [1] is “Increased spasmogenic situations, confusion, and sleeplessness”. Also, the half-life period result in data set [2] is on record as “about 30 minutes”.
